Structures are written as SMILES.

These results are taken from patent US12503471B2, “Triazatricycle compounds for the treatment of autoimmune disease” (Hoffmann-La Roche Inc., priority 2019, dated 2025).

The target of this test is T1, human TLR8 (Homo sapiens, UniProt Q9NR97).
T1 construct: host or cells: HEK293 (HEK-Blue hTLR8)
T1 sequence (Q9NR97 27-1041): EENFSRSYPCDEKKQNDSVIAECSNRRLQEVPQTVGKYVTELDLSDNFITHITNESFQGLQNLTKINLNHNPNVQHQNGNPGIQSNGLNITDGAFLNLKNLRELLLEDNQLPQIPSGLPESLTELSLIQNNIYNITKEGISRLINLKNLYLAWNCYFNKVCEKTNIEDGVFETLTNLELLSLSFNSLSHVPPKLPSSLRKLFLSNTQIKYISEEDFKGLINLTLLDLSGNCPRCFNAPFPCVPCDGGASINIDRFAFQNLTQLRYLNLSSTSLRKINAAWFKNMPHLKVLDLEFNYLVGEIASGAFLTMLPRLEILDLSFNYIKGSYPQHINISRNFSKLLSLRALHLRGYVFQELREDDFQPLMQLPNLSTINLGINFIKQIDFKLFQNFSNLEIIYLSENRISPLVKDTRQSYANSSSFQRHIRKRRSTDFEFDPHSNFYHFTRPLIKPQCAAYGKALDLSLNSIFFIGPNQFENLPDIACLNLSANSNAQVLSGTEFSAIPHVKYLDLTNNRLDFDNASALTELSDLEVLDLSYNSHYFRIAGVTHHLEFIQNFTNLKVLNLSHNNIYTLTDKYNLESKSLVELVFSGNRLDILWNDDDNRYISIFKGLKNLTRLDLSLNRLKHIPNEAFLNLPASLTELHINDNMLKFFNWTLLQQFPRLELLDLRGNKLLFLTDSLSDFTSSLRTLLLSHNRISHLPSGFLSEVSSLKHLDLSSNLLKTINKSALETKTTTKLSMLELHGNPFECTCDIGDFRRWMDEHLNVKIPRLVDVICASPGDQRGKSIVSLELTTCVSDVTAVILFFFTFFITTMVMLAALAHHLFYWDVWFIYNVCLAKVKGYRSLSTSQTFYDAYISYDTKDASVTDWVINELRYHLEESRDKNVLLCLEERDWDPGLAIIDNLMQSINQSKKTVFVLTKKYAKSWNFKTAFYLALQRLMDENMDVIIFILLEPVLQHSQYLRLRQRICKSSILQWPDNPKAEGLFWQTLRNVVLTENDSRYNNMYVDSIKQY
Nature of the test: HEK293-Blue-hTLR-8 cells assay. Type of test: cell-based. The settings on record: HEK293-Blue-hTLR8 cells, R848 stimulation, 20 hrs, SEAP reporter; read-out: HEK/hTLR8 IC50. The text has this: HEK293-Blue-hTLR-8 Cells Assay:
A stable HEK293-Blue-hTLR-8 cell line was purchased from InvivoGen (Cat. #: hkb-htlr8, San Diego, Calif., USA). These cells were originally designed for studying the stimulation of human TLR8 by monitoring the activation of NF-κB. A SEAP (secreted embryonic alkaline phosphatase) reporter gene was placed under the control of the IFN-β minimal promoter fused to five NF-κB and AP-1-binding sites. The SEAP was induced by activating NF-κB and AP-1 via stimulating HEK-Blue hTLR8 cells with TLR8 ligands. Therefore the reporter expression was declined by TLR8 antagonist under the stimulation of a ligand, such as R848, for incubation of 20 hrs. The cell culture supernatant SEAP reporter activity was determined using QUANTI-Blue™ kit (Cat. #: rep-qbl, Invivogen, San Diego, Ca, USA) at a wavelength of 640 nm, a detection medium that turns purple or blue in the presence of alkaline phosphatase.
HEK293-Blue-hTLR8 cells were incubated at a density of 250,000˜450,000 cells/mL in a volume of 170 μL in a 96-well plate in Dulbecco's Modified Eagle's medium (DMEM) containing 4.5 g/L glucose, 50 U/mL penicillin, […], […], 2 mM L-glutamine, 10% (v/v) heat-inactivated fetal bovine serum with addition of 20 μL test compound in a serial dilution in the presence of final DMSO at 1% and 10 μL of 60 uM R848 in above DMEM, perform incubation under 37° C. in a CO2 incubator for 20 hrs. Then 20 μL of the supernatant from each well was incubated with 180 μL Quanti-blue substrate solution at 37° C. for 2 hrs and the absorbance was read at 620-655 nm using a spectrophotometer. The signaling pathway that TLR8 activation leads to downstream NF-κB activation has been widely accepted, and therefore similar reporter assay was modified for evaluating TLR8 antagonist.
`C[C@@H]1CN(c2ccc(C#N)c3ncccc23)C[C@@H]2c3ccc(N4CCCNCC4)nc3CN12` [Example 20, 5-[(2S,6R)-11-(1,4-diazepan-1-yl)-6-methyl-4,7,10-triazatricyclo[7.4.0.02,7]trideca-1(9),10,12-trien-4-yl]quinoline-8-carbonitrile]: the IC50 was less than 300 pM.
The result for `C[C@@H]1CN(c2ccc(C#N)n3nccc23)C[C@@H]2c3ccc(N4C[C@@H]5C[C@H]4CN5)nc3CN12` [Example 21, 4-[(2S,6R)-11-[(1S,4S)-2,5-diazabicyclo[2.2.1]heptan-2-yl]-6-methyl-4,7,10-triazatricyclo[7.4.0.02,7]trideca-1(9),10,12-trien-4-yl]pyrazolo[1,5-a]pyridine-7-carbonitrile] reads 3600 pM; that for `[2H]c1ccc2c(N3C[C@@H](C)N4Cc5nc(C6CCNCC6)ccc5[C@H]4C3)ccc(C#N)c2n1` [Example 23, 2-Deuterio-5-[(2S,6R)-6-methyl-11-(4-piperidyl)-4,7,10-triazatricyclo[7.4.0.02,7]trideca-1(9),10,12-trien-4-yl]quinoline-8-carbonitrile], 300 pM; that for `[2H]c1ccc2c(N3C[C@@H](C)N4Cc5nc(OC6CCNCC6)ccc5[C@H]4C3)ccc(C#N)c2n1` [Example 24, 2-Deuterio-5-[(2S,6R)-6-methyl-11-(4-piperidyloxy)-4,7,10-triazatricyclo[7.4.0.02,7]trideca-1(9),10,12-trien-4-yl]quinoline-8-carbonitrile], less than 300 pM.
For `[2H]c1ccc2c(N3C[C@@H](C)N4Cc5nc(O[C@H]6CCNC6)ccc5[C@H]4C3)ccc(C#N)c2n1` [Example 25, 2-Deuterio-5-[(2S,6R)-6-methyl-11-[(3S)-pyrrolidin-3-yl]oxy-4,7,10-triazatricyclo[7.4.0.02,7]trideca-1(9),10,12-trien-4-yl]quinoline-8-carbonitrile], the IC50 is less than 300 pM.
